Laboratory results reported in ChEMBL document CHEMBL1641483, “Biological study of a somatostatin mimetic based on the 1-deoxynojrimycin scaffold” (Bioorg Med Chem Lett, 2011).
Active and inactive are the calls of the source. The rule behind the calls is not given here.

How the values were obtained:
HUVEC [1] = test: Induction of cell cycle arrest in HUVEC assessed as accumulation at G2/M phase at 20 uM after 24 hrs by flow cytometry; assay type: functional, Homo sapiens
HUVEC [2] = test: Induction of apoptosis in HUVEC at 10 to 20 uM after 48 hrs by fluorescence assay; assay type: functional, cell-based; conditions: Homo sapiens
Tubulin (Homo sapiens) = Tubulin (Homo sapiens) (UniProt P68371+Q9H4B7+P0DPH7+P68366+Q13509+Q71U36+P04350+Q3ZCM7+P07437+P68363+Q9BQE3+Q6PEY2+Q13885+Q9BVA1+Q9BUF5); test: Inhibition of tubulin polymerization in HUVEC at 20 uM by fluorescence staining; assay type: cell-based
HUVEC [3] = test: Antiangiogenic activity in HUVEC assessed as partial inhibition of tube formation at 20 uM; assay type: functional, cell-based; conditions: Homo sapiens
[4] = molecular target: Somatostatin receptor type 5 (Homo sapiens, UniProt P35346); test: Binding affinity to human SSTR5
Sequence of Somatostatin receptor type 5 (P35346 whole entry): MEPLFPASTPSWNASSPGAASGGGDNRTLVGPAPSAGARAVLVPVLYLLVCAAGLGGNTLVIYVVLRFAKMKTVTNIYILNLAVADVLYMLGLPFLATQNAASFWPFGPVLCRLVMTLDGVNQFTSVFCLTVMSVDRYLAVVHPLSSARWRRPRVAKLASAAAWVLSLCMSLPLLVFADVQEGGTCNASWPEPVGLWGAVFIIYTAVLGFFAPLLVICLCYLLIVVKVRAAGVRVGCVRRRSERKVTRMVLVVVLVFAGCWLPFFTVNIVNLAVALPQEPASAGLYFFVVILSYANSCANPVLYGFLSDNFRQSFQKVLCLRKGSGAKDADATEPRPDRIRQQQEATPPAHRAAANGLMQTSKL

HUVEC [5] = test: Induction of apoptosis in HUVEC assessed as change in mitochondrial membrane potential at 10 to 20 uM after 48 hrs by JC1 staining; assay type: functional, cell-based; conditions: Homo sapiens
HUVEC [6] = test: Cytotoxicity against HUVEC after 72 hrs by MTT assay; assay type: cell-based; conditions: Homo sapiens
[7] = molecular target: Somatostatin receptor type 4 (Homo sapiens, UniProt P31391); test: Binding affinity to human SSTR4
Sequence of Somatostatin receptor type 4 (P31391 whole entry): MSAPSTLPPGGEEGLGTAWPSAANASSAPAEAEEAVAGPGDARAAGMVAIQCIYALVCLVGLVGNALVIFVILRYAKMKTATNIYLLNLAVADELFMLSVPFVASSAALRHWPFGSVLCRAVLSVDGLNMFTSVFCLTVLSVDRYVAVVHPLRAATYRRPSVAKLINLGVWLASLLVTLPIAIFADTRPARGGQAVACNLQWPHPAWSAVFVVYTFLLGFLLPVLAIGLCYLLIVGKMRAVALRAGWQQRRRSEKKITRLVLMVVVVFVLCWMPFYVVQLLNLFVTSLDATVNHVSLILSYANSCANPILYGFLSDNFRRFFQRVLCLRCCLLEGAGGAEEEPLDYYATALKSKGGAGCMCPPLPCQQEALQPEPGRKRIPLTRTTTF

HUVEC [8] = test: Induction of cell cycle arrest in HUVEC assessed as accumulation at S phase at 20 uM after 24 hrs by flow cytometry; assay type: functional, Homo sapiens
HUVEC [9] = test: Inhibition of HUVEC migration at 20 uM by scratch-wound healing assay; assay type: functional, cell-based; conditions: Homo sapiens
HUVEC [10] = test: Antiangiogenic activity in HUVEC assessed as complete inhibition of tube formation at 40 uM; assay type: functional, cell-based; conditions: Homo sapiens
HUVEC [11] = test: Induction of cell cycle arrest in HUVEC assessed as accumulation at G1 phase at 20 uM after 24 hrs by flow cytometry; assay type: functional, Homo sapiens

NCCCCCOC[C@@H]1[C@@H](OCc2ccccc2)[C@H](OCc2ccccc2)[C@@H](OCc2ccccc2)CN1CCc1c[nH]c2ccccc12 was tested, and the Activity (HUVEC [1]) was 16.27%, the Activity (HUVEC [2]) was “Active” and the inhibition (Tubulin (Homo sapiens)) was “Active”. The inhibition (HUVEC [3]) was “Active”, the Ki [4] was 5 µM and the Activity (HUVEC [5]) was “Active”. For the same compound, the IC50 (HUVEC [6]) was 12.6 µM, the Ki [7] was 4.4 µM and the Activity (HUVEC [8]) was 13.81%. For the same compound, the inhibition (HUVEC [9]) was “Active”, the inhibition (HUVEC [10]) was “Active” and the Activity (HUVEC [11]) was 70.39%.
